The source of these data is patent US20180207228A1, “PEPTIDE COMBINATIONS AND USES THEREOF FOR TREATING GRASS ALLERGY” (ALK-Abelló A/S, priority 2015, published 2018).

Read-outs that look alike come from different tables or passages of the source. Where no end group is shown, it is not given here.

Data set [1] is described as follows: Extended solubility and short term stability study (visual, U-HPLC recovery, DLS, 90LS, UV-VIS, sum of scores). Conditions: for solubility: pH 4.5.
Data set [2] has as its system release of IFN-γ upon T cell activation. Kind of data set: Fluorospot assay, IFN-γ release (DK1-TCL01, US1-TCL01). Conditions: head prints TCL-02 DK1; 17 TCL-01 DK1 lines. In kind it is cell-based, human. Put shortly:
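A peptide counted as a hit at ≥20 SFC/10^6 cells, stimulation index ≥2 over medium, and p and Poisson ≤0.05. Cells came from TCL01 lines, raised from allergic donors' CD8-depleted PBMCs over 14 days of natural-allergen stimulation with IL-2. They were exposed to 2 μg/ml peptide or peptide mix for 20 h at 37° C.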

As for AYESYKFIPALEAAVKQAYA-OH [peptide 285], in data set [1] (3 mg/ml, buffers tested), the “solubility by ranking scheme based on a sum of scores” value is recorded as “good solubility”. Besides, the “solubility in aqueous solutions and short-term stability” value in data set [1] (pH in the range of 4.5 to 8.5) is “sufficiently soluble”.

Take DKYRTFVATFGAASNKAFAE-OH [peptide 231]: in data set [1], the “solubility in aqueous solutions and short-term stability” value is “sufficiently soluble”; the solubility result is “acceptable solubility”.

Turning to PANDKFTVFEAAFNNAIKAS-OH [compound 70], the “IFN-gamma % donor coverage (TCL-02 DK1)” value in data set [2] is recorded as 0.00%.

As for STGGAYESYKFIPALEAAVK-OH [compound 71], the “IFN-gamma % donor coverage (TCL-02 DK1)” value in data set [2] is recorded as 0.00%. Also, in data set [1], the “solubility in all the test samples (concentrations and pH tested), all solubility tests” value was “good solubility”; the “solubility in aqueous solutions and short-term stability” value is “sufficiently soluble”; the solubility result is recorded as “acceptable solubility”.

As to TDDNEEPIAPYHFDLSGHAF-OH [peptide 204], in data set [1], the “solubility in all the test samples (concentrations and pH tested), all solubility tests” value was “good solubility”; the “solubility in aqueous solutions and short-term stability” value is recorded as “sufficiently soluble”; the solubility entry is “acceptable solubility”.

Consider VATLSEALRIIAGTLEVHAV-OH [compound 67], for which, in data set [2], the “IFN-gamma % donor coverage (TCL-02 DK1)” value is 4.00%.

On to WGAIWRIDTPDKLTGPFTVR-OH [peptide 211], for which, in data set [1], the “solubility in aqueous solutions and short-term stability” value is reported as “sufficiently soluble”; the solubility entry is given as “acceptable solubility”.
